The values below come from patent publication US12515170B2, “CO2 capture and utilization system and method” (University of Kentucky Research Foundation, priority 2021, dated 2026).

Molecules are shown by their SMILES.

For assay [1], the system named is Scenedesmus acutus. The following applies: same molar N concentration; 3% CO2; 21 days; n=3. As to the method: In parallel, an experiment was performed using urea as a control (FIG. 13, tubes 1-3).
Experiments were conducted in a temperature controlled (20-27° C.) 10 L tubular photobioreactor system (FIG. 13). An artificial light system set to a 16:8 light/dark cycle (T5 cool white fluorescent bulbs) delivered 500 micromole m^−2 s^−1 PAR of photoactive radiation. CO2 was delivered as 3% CO2/nitrogen balance from gas cylinders. The experiments ran for 21 days.
Three times a week pH, UV-vis absorbance and dry mass measurements were made.

Assay [2] deals with Scenedesmus acutus. The assay is described as follows: Algae production in 800 mL bioreactors with different nitrogen sources / CO2:NH3 mole ratios. Format: cell-based. Particulars: constant gas sparging, nitrogen source compared, no unit in Table 8 (FIG. 33: productivity g/L/day). As to the method:
To Examine the effect CO2:NH3 mole ratios on Scenedesmus acutus culture health and productivity, experiments were conducted in 800 mL bioreactors with constant gas sparging and different CO2:NH3 mole ratios (ranging from 7:1 up to 18:1) (FIG. 33). The “cycles” indicated in FIG. 33 refer to growth cycles of algae. In this regard, each bioreactor is normally inoculated with algae at a low concentration (e.g., 0.1 g/LO and the algae are allowed to grow until a concentration of 1 g/L is obtained. At this point, the algae are harvested until a concentration of 0.1 g/L is left in the bioreactor (with the addition of fresh nutrients and water). The algae are allowed to grow again until a concentration of 1 g/L is again reached, followed by harvesting. Each period of growth up to harvesting is characterized as a growth cycle.

Regarding `N.N.O=C(O)O` [(NH4)2CO3, ammonium carbonate], in the assay on Scenedesmus acutus [1], the “algae growth rates by dry mass measurements versus urea control” value is “significantly higher than for the control” and the “culture productivity by UV-vis absorbance at 560 nm versus urea control” value is on record as “significantly more productive than the control”. Regarding `O=[N+]([O-])[O-].[Na+]` [NaNO3], in the assay on Scenedesmus acutus [2], the growth rate is 0.13 ± 0.05. Regarding `NC(N)=O` [Urea, urea], in the assay on Scenedesmus acutus [2], the growth rate came to 0.11 ± 0.04.
